Laboratory results: the NIST ThermoML archive (doi:10.1021/je060052p)
± gives the expanded uncertainty stated by the source.

Tests used:
[1] = Liquid; for mass density / speed of sound: 298.15 K, 101.33 kPa; for vapor or sublimation pressure: Ebulliometric method (Recirculating still)
[2] = refractive index (Na D-line) (dimensionless); conditions: 298.15 K; 101.33 kPa; Liquid
[3] = xn = mol fraction of the nth substance listed; conditions: 298.15 K, 101 kPa, Liquid
[4] = refractive index (Na D-line) (dimensionless); xn = mol fraction of the nth substance listed; conditions: 298.15 K, 101 kPa, Liquid

CCOC(=O)C(C)O (racemic) [DL-ethyl lactate]
mass density [1]: 1028.02 ± 0.27 kg/m3
speed of sound [1]: 1277 ± 3 m/s
vapor or sublimation pressure ([1]; 424.98 K): 101.3 ± 1 kPa
refractive index [2]: 1.4105 ± 0.0012

COC(C)=O [methyl ethanoate]
mass density [1]: 926.96 ± 0.3 kg/m3
speed of sound [1]: 1148 ± 3 m/s
vapor or sublimation pressure ([1]; 330.03 K): 101.3 ± 1 kPa
refractive index [2]: 1.35865 ± 0.0012

CCOC(C)=O [ethyl acetate]
mass density [1]: 894.29 ± 0.34 kg/m3
speed of sound [1]: 1138 ± 3 m/s
vapor or sublimation pressure ([1]; 350.25 K): 101.3 ± 1 kPa
refractive index [2]: 1.36978 ± 0.0012

CCOC(=O)C(C)O (stereo not drawn) [DL-ethyl lactate] + COC(C)=O
mass density ([3]; x2 = 0.058): 1024.62 ± 0.28 kg/m3
speed of sound ([3]; x2 = 0.058): 1272 ± 3 m/s
mass density ([3]; x2 = 0.1): 1021.03 ± 0.27 kg/m3
speed of sound ([3]; x2 = 0.1): 1266 ± 3 m/s
mass density ([3]; x2 = 0.15): 1017.3 ± 0.26 kg/m3
speed of sound ([3]; x2 = 0.15): 1261 ± 3 m/s
mass density ([3]; x2 = 0.2): 1013.63 ± 0.26 kg/m3
speed of sound ([3]; x2 = 0.2): 1255 ± 3 m/s
mass density ([3]; x2 = 0.25): 1009.78 ± 0.27 kg/m3
speed of sound ([3]; x2 = 0.25): 1250 ± 3 m/s
mass density ([3]; x2 = 0.3): 1005.46 ± 0.28 kg/m3
speed of sound ([3]; x2 = 0.3): 1244 ± 3 m/s
mass density ([3]; x2 = 0.35): 1001.13 ± 0.28 kg/m3
speed of sound ([3]; x2 = 0.35): 1238 ± 3 m/s
mass density ([3]; x2 = 0.4): 996.59 ± 0.28 kg/m3
speed of sound ([3]; x2 = 0.4): 1232 ± 3 m/s
mass density ([3]; x2 = 0.45): 992.2 ± 0.28 kg/m3
speed of sound ([3]; x2 = 0.45): 1226 ± 3 m/s
mass density ([3]; x2 = 0.5): 987.41 ± 0.29 kg/m3
speed of sound ([3]; x2 = 0.5): 1220 ± 3 m/s
mass density ([3]; x2 = 0.55): 982.34 ± 0.29 kg/m3
speed of sound ([3]; x2 = 0.55): 1213 ± 3 m/s
mass density ([3]; x2 = 0.6): 977.25 ± 0.3 kg/m3
speed of sound ([3]; x2 = 0.6): 1207 ± 3 m/s
mass density ([3]; x2 = 0.65): 972.03 ± 0.31 kg/m3
speed of sound ([3]; x2 = 0.65): 1200 ± 3 m/s
mass density ([3]; x2 = 0.7): 966.3 ± 0.32 kg/m3
speed of sound ([3]; x2 = 0.7): 1193 ± 3 m/s
mass density ([3]; x2 = 0.75): 960.47 ± 0.32 kg/m3
speed of sound ([3]; x2 = 0.75): 1186 ± 3 m/s
mass density ([3]; x2 = 0.8): 954.34 ± 0.33 kg/m3
speed of sound ([3]; x2 = 0.8): 1180 ± 3 m/s
mass density ([3]; x2 = 0.85): 947.87 ± 0.34 kg/m3
speed of sound ([3]; x2 = 0.85): 1172 ± 3 m/s
mass density ([3]; x2 = 0.9): 941.28 ± 0.35 kg/m3
speed of sound ([3]; x2 = 0.9): 1164 ± 3 m/s
mass density ([3]; x2 = 0.95): 934.27 ± 0.36 kg/m3
speed of sound ([3]; x2 = 0.95): 1157 ± 3 m/s
refractive index ([4]; x2 = 0.058): 1.40872 ± 0.0012
refractive index ([4]; x2 = 0.1): 1.40699 ± 0.0012
refractive index ([4]; x2 = 0.15): 1.40595 ± 0.0012
refractive index ([4]; x2 = 0.2): 1.40379 ± 0.0012
refractive index ([4]; x2 = 0.25): 1.4023 ± 0.0012
refractive index ([4]; x2 = 0.3): 1.39968 ± 0.0013
refractive index ([4]; x2 = 0.35): 1.39787 ± 0.0012
refractive index ([4]; x2 = 0.4): 1.39628 ± 0.0012
refractive index ([4]; x2 = 0.45): 1.39379 ± 0.0013
refractive index ([4]; x2 = 0.5): 1.39125 ± 0.0013
refractive index ([4]; x2 = 0.55): 1.3879 ± 0.0013
refractive index ([4]; x2 = 0.6): 1.38498 ± 0.0013
refractive index ([4]; x2 = 0.65): 1.38197 ± 0.0013
refractive index ([4]; x2 = 0.7): 1.37916 ± 0.0013
refractive index ([4]; x2 = 0.75): 1.37601 ± 0.0013
refractive index ([4]; x2 = 0.8): 1.37278 ± 0.0013
refractive index ([4]; x2 = 0.85): 1.3696 ± 0.0013
refractive index ([4]; x2 = 0.9): 1.36642 ± 0.0013
refractive index ([4]; x2 = 0.95): 1.36248 ± 0.0013

CCOC(=O)C(C)O (stereo not drawn) [DL-ethyl lactate] + CCOC(C)=O
mass density ([3]; x2 = 0.049): 1022.5 ± 0.34 kg/m3
speed of sound ([3]; x2 = 0.049): 1267 ± 3 m/s
mass density ([3]; x2 = 0.1): 1016.77 ± 0.34 kg/m3
speed of sound ([3]; x2 = 0.1): 1263 ± 3 m/s
mass density ([3]; x2 = 0.15): 1010.85 ± 0.34 kg/m3
speed of sound ([3]; x2 = 0.15): 1256 ± 3 m/s
mass density ([3]; x2 = 0.2): 1004.94 ± 0.34 kg/m3
speed of sound ([3]; x2 = 0.2): 1249 ± 3 m/s
mass density ([3]; x2 = 0.251): 998.8 ± 0.34 kg/m3
speed of sound ([3]; x2 = 0.251): 1243 ± 3 m/s
mass density ([3]; x2 = 0.3): 992.68 ± 0.35 kg/m3
speed of sound ([3]; x2 = 0.3): 1236 ± 3 m/s
mass density ([3]; x2 = 0.35): 986.4 ± 0.36 kg/m3
speed of sound ([3]; x2 = 0.35): 1229 ± 3 m/s
mass density ([3]; x2 = 0.4): 979.87 ± 0.36 kg/m3
speed of sound ([3]; x2 = 0.4): 1222 ± 3 m/s
mass density ([3]; x2 = 0.45): 973.59 ± 0.36 kg/m3
speed of sound ([3]; x2 = 0.45): 1215 ± 3 m/s
mass density ([3]; x2 = 0.5): 966.98 ± 0.37 kg/m3
speed of sound ([3]; x2 = 0.5): 1208 ± 3 m/s
mass density ([3]; x2 = 0.55): 960.41 ± 0.38 kg/m3
speed of sound ([3]; x2 = 0.55): 1201 ± 3 m/s
mass density ([3]; x2 = 0.6): 953.46 ± 0.39 kg/m3
speed of sound ([3]; x2 = 0.6): 1194 ± 3 m/s
mass density ([3]; x2 = 0.65): 946.64 ± 0.4 kg/m3
speed of sound ([3]; x2 = 0.65): 1188 ± 3 m/s
mass density ([3]; x2 = 0.7): 939.6 ± 0.41 kg/m3
speed of sound ([3]; x2 = 0.7): 1180 ± 3 m/s
mass density ([3]; x2 = 0.756): 931.41 ± 0.42 kg/m3
speed of sound ([3]; x2 = 0.756): 1173 ± 3 m/s
mass density ([3]; x2 = 0.8): 924.84 ± 0.42 kg/m3
speed of sound ([3]; x2 = 0.8): 1167 ± 3 m/s
mass density ([3]; x2 = 0.849): 917.72 ± 0.43 kg/m3
speed of sound ([3]; x2 = 0.849): 1160 ± 3 m/s
mass density ([3]; x2 = 0.9): 910.03 ± 0.44 kg/m3
speed of sound ([3]; x2 = 0.9): 1153 ± 3 m/s
mass density ([3]; x2 = 0.95): 902.37 ± 0.45 kg/m3
speed of sound ([3]; x2 = 0.95): 1145 ± 3 m/s
refractive index ([4]; x2 = 0.049): 1.4088 ± 0.0012
refractive index ([4]; x2 = 0.1): 1.40722 ± 0.0012
refractive index ([4]; x2 = 0.15): 1.40535 ± 0.0012
refractive index ([4]; x2 = 0.2): 1.40357 ± 0.0012
refractive index ([4]; x2 = 0.251): 1.40168 ± 0.0012
refractive index ([4]; x2 = 0.3): 1.40005 ± 0.0012
refractive index ([4]; x2 = 0.35): 1.39819 ± 0.0012
refractive index ([4]; x2 = 0.4): 1.39623 ± 0.0012
refractive index ([4]; x2 = 0.45): 1.39451 ± 0.0012
refractive index ([4]; x2 = 0.5): 1.39263 ± 0.0012
refractive index ([4]; x2 = 0.55): 1.3906 ± 0.0012
refractive index ([4]; x2 = 0.6): 1.38855 ± 0.0012
refractive index ([4]; x2 = 0.65): 1.38645 ± 0.0013
refractive index ([4]; x2 = 0.7): 1.3842 ± 0.0013
refractive index ([4]; x2 = 0.756): 1.38126 ± 0.0013
refractive index ([4]; x2 = 0.8): 1.37923 ± 0.0013
refractive index ([4]; x2 = 0.849): 1.37694 ± 0.0013
refractive index ([4]; x2 = 0.9): 1.3747 ± 0.0013
refractive index ([4]; x2 = 0.95): 1.3722 ± 0.0013
